{
  "source": "patent US4552969A",
  "about": "“3-Alkanoyl benzothiazoline compounds useful for treating cardiovascular disease” (Santen Pharmaceutical Co., Ltd., priority 1981, dated 1985)",
  "key": {"platelet aggregation": {"tested_on": "platelet aggregation", "assay": "Pharmacological test II: anti-aggregatory activity, collagen or ADP induced platelet aggregation in vitro (platelet rich plasma)", "assay_type": "cell-based", "settings": "Oryctolagus cuniculus, 50% inhibition of control response, rabbit PRP, 1 minute preincubation at 37° C., collagen (3 μg/ml) or ADP (3 μM), inducer not given", "excerpt": "Blood platelet plays an important role only in hemostasis but also in thrombosis. Platelet hyperaggregability leads to an inclease in the number of circulating platelet aggregates, which may contribute toward the development of cardiac arrythmias, cardiac arrest or myocardial infarction. These cardiovascular diseases can be prevented by inhibition of platelet aggregation.\nBlood was obtained from an anesthetized rabbit using 0.1 volumes of 3.8% sodium citrate as anticoagulant. Platelet rich plasma(PRP) was isolated by centrifugation at 650 rpm for 10 minutes at room temperature. After preincubation of PRP (0.25 ml) with various concentrations of test compounds (14 μl) for 1 minute at 37° C., collagen (3 μg/ml:final concentration) or ADP (3 μM:final concentration) was added to induce aggregation and the aggregation profiles were monitored with RIKADENKI six-channel aggregometer. The control experiment contained saline instead of test compound.\nThe anti-aggregatory activity was represented by the concentration of test compound which elicited 50% inhibition of control response."}, "guinea-pig teania coli": {"tested_on": "guinea-pig teania coli", "assay": "Pharmacological test I: calcium-antagonistic activity, inhibition of Ca++-evoked contraction of isolated taenia coli", "assay_type": "cell-based", "settings": "Cavia porcellus, 5 min; 50% inhibition of contraction evoked by CaCl2 (3×10^-4 M); Ca++-free-high-K Krebs solution, 32° C., 5 minutes pre-exposure", "protocol": "The action potentials on the smooth muscles of uterus, teania coli and portal vein are dependent on calcium ion, and therefor these smooth muscle preparations are useful for screening of calcium antagonists. We measured the calcium-antagonistic activity of the compounds by the method using guinea-pig teania coli preparation.\nIsolated guinea-pig teania coil was suspended in a 20 ml organ bath with Krebs solution at 32° C. and bubbled with 5% carbon dioxide in oxygen. After equilibration, the muscle was washed with Ca^++ -free Krebs solution, and when the muscle had relaxed to basal level, it was suspended in Ca^++ -free-high-K Krebs solution.\nThe muscle was exposed to test compounds for 5 minutes before addition of CaCl2, and the contraction evoked by CaCl2 (3×10^-4 M) was recorded isotonically. The calcium-antagonistic activity was represented by the concentration of test compound which elicited 50% inhibition of Ca^++ -evoked contraction (IC50)."}, "[1]": {"assay": "Acute toxicity test, oral", "settings": "rat, in vivo, male ddy-SLC, 0.5% tragacanth suspension", "protocol": "Male ddy-SLC strain rats (4 weeks of age, weighing 19-21 g) were placed in a breeding room of constant temperature and huminity (23±1° C., 55±5%) and fed freely pellet diet and water ad. libitum for a week. Rats showing normal growth were selected for the test.\nTest compounds are suspended in 0.5% tragacanth suspention and administered orally in a dose of 0.5 ml/20 g body weight."}},
  "note": "Counter-ions that a name gives are not always drawn.",
  "data": [
    {"compound": "CC(=O)N1c2ccccc2SC1c1ccccc1OCCCN(C)C1CCCCC1", "note": "(centres unmarked) [Compound 8]", "values": [
      {"measurement": "IC50", "setting": "platelet aggregation", "value": 4.6, "unit": "µM"}
    ]},
    {"compound": "COc1ccc(OCCCCCN(C)C2CCCCC2)c(C2Sc3ccccc3N2C(C)=O)c1", "note": "(centres unmarked) [Compound 21, 3-Acetyl-2-[2-[5-(N-cyclohexyl-N-methlamino)pentyloxy]-5-methoxyphenyl]benzothiazoline fumarate]", "values": [
      {"measurement": "IC50", "setting": "platelet aggregation", "value": 1.3, "unit": "µM"}
    ]},
    {"compound": "COc1ccc(OCCCCCCN(C)C2CCCCC2)c(C2Sc3ccccc3N2C(C)=O)c1", "note": "(centres unmarked) [Compound 22]", "values": [
      {"measurement": "IC50", "setting": "platelet aggregation", "value": 1.1, "unit": "µM"}
    ]},
    {"compound": "COc1ccc(OCCCCN(C)CCc2ccc(OC)c(OC)c2)c(C2Sc3ccccc3N2C(C)=O)c1", "note": "(centres unmarked) [Compound 23]", "values": [
      {"measurement": "IC50", "setting": "guinea-pig teania coli", "value": 0.66, "unit": "µM"}
    ]},
    {"compound": "CC(=O)N1c2ccccc2SC1c1cc([N+](=O)[O-])ccc1OCCCN(C)C1CCCCC1", "note": "(centres unmarked) [Compound 29]", "values": [
      {"measurement": "LD50", "setting": "[1]", "value": "> 2000", "unit": "mg/kg"},
      {"measurement": "IC50", "setting": "platelet aggregation", "value": 3.2, "unit": "µM"}
    ]},
    {"compound": "CC(=O)N1c2ccccc2SC1c1cc([N+](=O)[O-])ccc1OCCCNCc1cccnc1", "note": "(centres unmarked) [Compound 33]", "values": [
      {"measurement": "IC50", "setting": "guinea-pig teania coli", "value": 0.52, "unit": "µM"}
    ]},
    {"compound": "COc1cc(C2Sc3ccccc3N2C(C)=O)cc(OC)c1OCCCN(C)C1CCCCC1", "note": "(centres unmarked) [Compound 54]", "values": [
      {"measurement": "IC50", "setting": "platelet aggregation", "value": 3.1, "unit": "µM"}
    ]},
    {"compound": "COc1cc(C2Sc3ccccc3N2C(C)=O)cc(OC)c1OCCCCN(C)C1CCCCC1", "note": "(centres unmarked) [Compound 55]", "values": [
      {"measurement": "IC50", "setting": "platelet aggregation", "value": 2, "unit": "µM"}
    ]},
    {"compound": "COc1ccc(OCCCCN2CCN(CCc3ccc(OC)c(OC)c3)CC2)c(C2Sc3ccccc3N2C(C)=O)c1", "note": "(centres unmarked) [Compound 63]", "values": [
      {"measurement": "IC50", "setting": "guinea-pig teania coli", "value": 0.64, "unit": "µM"},
      {"measurement": "LD50", "setting": "[1]", "value": "≥ 3000", "unit": "mg/kg"}
    ]},
    {"compound": "COc1ccc(OCCCCN2CCN(CCc3cc(OC)c(OC)c(OC)c3)CC2)c(C2Sc3ccccc3N2C(C)=O)c1", "note": "(centres unmarked) [Compound 67]", "values": [
      {"measurement": "IC50", "setting": "guinea-pig teania coli", "value": 0.47, "unit": "µM"},
      {"measurement": "LD50", "setting": "[1]", "value": "> 1000", "unit": "mg/kg"}
    ]},
    {"compound": "CC(=O)N1c2ccccc2SC1c1cc([N+](=O)[O-])ccc1OCCCN1CCC(Cc2ccccc2)CC1", "note": "(centres unmarked) [Compound 95]", "values": [
      {"measurement": "IC50", "setting": "platelet aggregation", "value": 2.7, "unit": "µM"}
    ]}
  ]
}
